According to patent US12595239B2, “Substituted isoxazoline derivatives” (BASF SE, priority 2021, dated 2026):

Tests used:
Format in all cases: in vivo
Plutella xylostella = assay: B.6 Diamond Back Moth, cabbage leaf disc dip test; conditions: foliar, 3rd instar larvae, 72 hours after treatment, read-out: mortality in comparison with untreated controls
Method: The active compound was dissolved at the desired concentration in a mixture of 1:1 (vol:vol) distilled water:acetone. Surfactant (Kinetic) was added at a rate of 0.01% (vol/vol). The test solution was prepared at the day of use. Cabbage leaf discs (60 mm in diameter) were dipped in test solution and air-dried. Treated leaves were placed in petri dishes lined with moistened filter paper and inoculated with ten 3rd instar larvae. Mortality was recorded 72 hours after treatment. Feeding damages were also recorded using a scale of 0-100%.

Bemisia argentifolii = assay: B.12 Silverleaf Whitefly (adults), cotton plant spray test; conditions: 72 h, 3 days after treatment, read-out: mortality in comparison with untreated controls
Method: The active compounds were formulated by a Tecan liquid handler in 100% cyclohexanone as a 10,000-ppm solution supplied in tubes. The 10,000-ppm solution was serially diluted in 100% cyclohexanone to make interim solutions. These served as stock solutions for which final dilutions were made by the Tecan in 50% acetone:50% water (v/v) into 5 or 10 ml glass vials. A nonionic surfactant (Kinetic®) was included in the solution at a volume of 0.01% (v/v). The vials were then inserted into an automated electrostatic sprayer equipped with an atomizing nozzle for application to plants/insects. Cotton plants at the cotyledon stage (one plant per pot) were sprayed by an automated electrostatic plant sprayer equipped with an atomizing spray nozzle. The plants were dried in the sprayer fume hood and then removed from the sprayer. Each pot was placed into a plastic cup and about 10 to 12 whitefly adults (approximately 3-5 days old) were introduced. The insects were collected using an aspirator and a nontoxic Tygon® tubing connected to a barrier pipette tip. The tip, containing the collected insects, was then gently inserted into the soil containing the treated plant, allowing insects to crawl out of the tip to reach the foliage for feeding. Cups were covered with a reusable screened lid. Test plants were maintained in a growth room at about 25° C. and about 20-40% relative humidity for 3 days, avoiding direct exposure to fluorescent light (14:10 light:dark photoperiod) to prevent trapping of heat inside the cup. Mortality was assessed 3 days after treatment, compared to untreated control plants.

Spodoptera eridania = assay: B.11 Southern Armyworm 2nd instar larvae, lima bean foliar spray test; conditions: 96 h, 4 days after treatment, read-out: mortality in comparison with untreated controls
Method: The active compounds were formulated by a Tecan liquid handler in 100% cyclohexanone as a 10′000 ppm solution supplied in tubes. The 10′000 ppm solution was serially diluted in 100% cyclohexanone to make interim solutions. These served as stock solutions for which final dilutions were made by the Tecan in 50% acetone:50% water (v/v) into 10 or 20 ml glass vials. A nonionic surfactant (Kinetic®) was included in the solution at a volume of 0.01% (v/v). The vials were then inserted into an automated electrostatic sprayer equipped with an atomizing nozzle for application to plants/insects. Lima bean plants (variety Sieva) were grown 2 plants to a pot and selected for treatment at the 1st true leaf stage. Test solutions were sprayed onto the foliage by an automated electrostatic plant sprayer equipped with an atomizing spray nozzle. The plants were dried in the sprayer fume hood and then removed from the sprayer. Each pot was placed into perforated plastic bags with a zip closure. Ten to 11 armyworm larvae were placed into the bag and the bags zipped closed. Test plants were maintained in a growth room at about 25° C. and about 20-40% relative humidity for 4 days, avoiding direct exposure to fluorescent light (14:10 light:dark photo-period) to prevent trapping of heat inside the bags. Mortality and reduced feeding were assessed 4 days after treatment, compared to untreated control plants.

Dichromothrips corbetti = assay: B.7 Orchid Thrips, floral-immersion test; conditions: adult thrips, 72 hours after treatment, read-out: mortality in comparison with untreated controls
Method: Dichromothrips corbetti adults used for bioassay were obtained from a colony maintained continuously under laboratory conditions. For testing purposes, the test compound was diluted in a 1:1 mixture of acetone:water (vol:vol), plus Kinetic at a rate of 0.01% v/v.
Thrips potency of each compound was evaluated by using a floral-immersion technique. Each orchid petal was dipped into treatment solution and allowed to dry in Petri dishes. Treated petals were placed into individual re-sealable plastic along with about 20 adult thrips. All test arenas were held under dark condition and a temperature of about 28° C. for duration of the assay. The percent mortality was recorded 72 hours after treatment.

Nezara viridula = assay: B.8 Green Soldier Stink Bug, soybean pod spray test; conditions: 120 h, late 3rd instar, after 5 days, read-out: mortality in comparison with untreated controls
Method: The active compound was dissolved at the desired concentration in a mixture of 1:1 (vol:vol) distilled water:aceteone. Surfactant (Kinetic) was added at a rate of 0.01% (vol/vol). The test solution was prepared at the day of use. Soybean pods were placed in 90×50 mm glass Petri dishes lined with moistened filter paper and inoculated with ten late 3rd instar N. viridula. Using a hand atomizer, an approximately 2 ml solution was sprayed into each Petri dish. Treated setup was kept at about 25-26° C. and relative humidity of about 65-70%. Percent mortality was recorded after 5 days.

Nephotettix virescens = assay: B.9 Rice Green Leafhopper, rice seedling spray test; conditions: adults, after 72 hours, read-out: mortality in comparison with untreated controls
Method: Four to five-week old rice seedlings with cut upper leaf portion were cleaned and washed 24 hours before spraying. The active compounds were formulated in 1:1 acetone:water (vol:vol), and 0.01% vol/vol surfactant (Kinetic) was added. Potted rice seedlings were sprayed with 5-6 ml test solution, air dried, covered with Mylar cages and inoculated with 10 adults. Treated rice plants were kept at about 28-29° C. and relative humidity of about 50-60%. Percent mortality was recorded after 72 hours.

Aedes aegypti = assay: whole plant or invertebrate; conditions: 48 h, larval mortality, 2 days, read-out: mortality in comparison with untreated controls
Method: For evaluating control of Yellow Fever Mosquito, the test unit consisted of 96-well-microtiter plates containing 200 μl of tap water per well and 5-15 freshly hatched A. aegypti larvae. The active compounds were formulated using a solution containing 75% (v/v) water and 25% (v/v) DMSO. Different concentrations of formulated compounds or mixtures were sprayed onto the insect diet at 2.5 μl, using a custom-built micro atomizer, at two replications.
After application, microtiter plates were incubated at 28±1° C., 80±5% RH for 2 days. Larval mortality was then visually assessed.

Anthonomus grandis = assay: B.1 Boll weevil (Anthonomus grandis), 96-well microtiter plate diet test; conditions: 120 h, egg and larval mortality, 5 days, read-out: mortality in comparison with untreated controls
Method: For evaluating control of boll weevil, the test unit consisted of 96-well-microtiter plates containing an insect diet and 5-10 A. grandis eggs.
The compounds were formulated using a solution containing 75% v/v water and 25% v/v DMSO. Different concentrations of formulated compounds were sprayed onto the insect diet at 5 μl, using a custom-built micro atomizer, at two replications.
After application, microtiter plates were incubated at about 25±1° C. and about 75±5% relative humidity for 5 days. Egg and larval mortality were then visually assessed.

Myzus persicae = assay: B.3 Green Peach Aphid (mixed life stages), systemic artificial diet test; conditions: 72 h, treated aphid diet, 3 days, read-out: mortality in comparison with untreated controls
Text: For evaluating control of Green Peach Aphid through systemic means the test unit consisted of 96-well-microtiter plates containing liquid artificial diet under an artificial membrane. The compounds were formulated using a solution containing 75% v/v water and 25% v/v DMSO. Different concentrations of formulated compounds were pipetted into the aphid diet, using a custom-built pipette, at two replications. After application, 5-8 adult aphids were placed on the artificial membrane inside the microtiter plate wells. The aphids were then allowed to suck on the treated aphid diet and incubated at about 23±1° C. and about 50±5% relative humidity for 3 days. Aphid mortality and fecundity was then visually assessed.

Heliothis virescens = assay: B.4 Tobacco Budworm, microtiter plate diet test; conditions: 120 h, egg and larval mortality, 5 days, read-out: mortality in comparison with untreated controls
Method: For evaluating control of Tobacco Budworm, the test unit consisted of 96-well-microtiter plates containing an insect diet and 15-25 H. virescens eggs. The compounds were formulated using a solution containing 75% v/v water and 25% v/v DMSO. Different concentrations of formulated compounds were sprayed onto the insect diet at 10 μl, using a custom-built micro atomizer, at two replications. After application, microtiter plates were incubated at about 28±1° C. and about 80±5% relative humidity for 5 days. Egg and larval mortality was then visually assessed.

CCOC(=O)N(C1=NOC(c2cc(Cl)cc(Cl)c2)(C(F)(F)F)C1)c1ccc(Cl)c(C(=O)N(C(=O)OCC)C2(C#N)CC2)c1 (centres unmarked) [I-100, ethyl N-[4-chloro-3-[(1-cyanocyclopropyl)-ethoxycarbonyl-carbamoyl]-phenyl]-N-[5-(3,5-dichlorophenyl)-5-(trifluoromethyl)-4H-isoxazol-3-yl]carbamate]
≥ 75%: mortality at 300 ppm (Plutella xylostella) | mortality at 300 ppm (Bemisia argentifolii) | mortality at 300 ppm (Spodoptera eridania) | mortality at 300 ppm (Dichromothrips corbetti)

N#CC1(NC(=O)c2cc(N(CC3CC3)C3=NOC(c4cc(Cl)cc(Cl)c4)(C(F)(F)F)C3)ccc2Cl)CC1 (centres unmarked) [I-60, 2-chloro-N-(1-cyanocyclopropyl)-5-[cyclopropylmethyl-[5-(3,5-dichlorophenyl)-5-(trifluoromethyl)-4H-isoxazol-3-yl]amino]benzamide]
≥ 75%: mortality at 300 ppm (Plutella xylostella) | mortality at 300 ppm (Nezara viridula) | mortality at 300 ppm (Nephotettix virescens) | mortality at 300 ppm (Spodoptera eridania) | mortality at 300 ppm (Dichromothrips corbetti)

O=C(NC1(c2ccnnc2)CC1)c1cc(NC2=NOC(c3cc(Cl)cc(Cl)c3)(C(F)(F)F)C2)ccc1Cl (centres unmarked) [I-162, 2-chloro-5-[[5-(3,5-dichlorophenyl)-5-(trifluoromethyl)-4H-isoxazol-3-yl]amino]-N-(1-pyridazin-4-ylcyclopropyl)benzamide]
≥ 75%: mortality at 300 ppm (Plutella xylostella) | mortality at 2500 ppm (Aedes aegypti) | mortality at 300 ppm (Bemisia argentifolii) | mortality at 2500 ppm (Anthonomus grandis) | mortality at 300 ppm (Spodoptera eridania)

Nc1c(F)ccc(NC(=O)c2cc(NC3=NOC(c4cc(Cl)cc(Cl)c4)(C(F)(F)F)C3)ccc2Cl)c1F (centres unmarked) [I-4, N-(3-amino-2,4-difluoro-phenyl)-2-chloro-5-[[5-(3,5-dichlorophenyl)-5-(trifluoromethyl)-4H-isoxazol-3-yl]amino]benzamide]
≥ 75%: mortality at 300 ppm (Plutella xylostella) | mortality at 2500 ppm (Myzus persicae) | mortality at 2500 ppm (Aedes aegypti) | mortality at 300 ppm (Nezara viridula) | mortality at 2500 ppm (Anthonomus grandis) | mortality at 2500 ppm (Heliothis virescens) | mortality at 300 ppm (Dichromothrips corbetti)

O=C(Nc1ccc(F)cc1F)c1cc(NC2=NOC(c3cc(Cl)cc(Cl)c3)(C(F)(F)Cl)C2)ccc1Cl (centres unmarked) [I-131, 2-chloro-5-[[5-[chloro(difluoro)methyl]-5-(3,5-dichlorophenyl)-4H-isoxazol-3-yl]amino]-N-(2,4-difluorophenyl)benzamide]
≥ 75%: mortality at 300 ppm (Plutella xylostella) | mortality at 2500 ppm (Myzus persicae) | mortality at 2500 ppm (Aedes aegypti) | mortality at 2500 ppm (Anthonomus grandis) | mortality at 300 ppm (Spodoptera eridania) | mortality at 2500 ppm (Heliothis virescens) | mortality at 300 ppm (Dichromothrips corbetti)

O=C(N[C@@H]1CON(CC(F)(F)F)C1=O)c1cc(NC2=NOC(c3cc(Cl)c(F)c(Cl)c3)(C(F)(F)F)C2)ccc1Cl (stereo partly drawn) [I-114, 2-chloro-5-[[5-(3,5-dichloro-4-fluoro-phenyl)-5-(trifluoromethyl)-4H-isoxazol-3-yl]amino]-N-[(4R)-3-oxo-2-(2,2,2-trifluoroethyl)isoxazolidin-4-yl]benzamide]
≥ 75%: mortality at 300 ppm (Plutella xylostella) | mortality at 300 ppm (Bemisia argentifolii) | mortality at 300 ppm (Spodoptera eridania) | mortality at 300 ppm (Dichromothrips corbetti)

CCN1OC[C@@H](NC(=O)c2cc(N(C)C3=NOC(c4cc(Cl)c(F)c(Cl)c4)(C(F)(F)F)C3)ccc2Cl)C1=O (stereo partly drawn) [I-119, 2-chloro-5-[[5-(3,5-dichloro-4-fluoro-phenyl)-5-(trifluoromethyl)-4H-isoxazol-3-yl]-methyl-amino]-N-[(4R)-2-ethyl-3-oxo-isoxazolidin-4-yl]benzamide]
≥ 75%: mortality at 300 ppm (Plutella xylostella) | mortality at 300 ppm (Nezara viridula) | mortality at 300 ppm (Nephotettix virescens) | mortality at 300 ppm (Dichromothrips corbetti)

CN(C1=NOC(c2cc(Cl)cc(Cl)c2)(C(F)(F)F)C1)c1ccc(Cl)c(C(=O)NC2(c3cnn(C)c3)CC2)c1 (centres unmarked) [I-125, 2-chloro-5-[[5-(3,5-dichlorophenyl)-5-(trifluoromethyl)-4H-isoxazol-3-yl]-methyl-amino]-N-[1-(1-methylpyrazol-4-yl)cyclopropyl]benzamide]
≥ 75%: mortality at 300 ppm (Plutella xylostella) | mortality at 2500 ppm (Myzus persicae) | mortality at 2500 ppm (Anthonomus grandis) | mortality at 2500 ppm (Heliothis virescens) | mortality at 300 ppm (Dichromothrips corbetti)
